Laboratory results: patent US10751322B2, “Indole-3-aldehyde for treating dysreactive immune disorders” (Universita′ degli Studi di Perugia, priority 2013, dated 2020)

Assays:
[1] = target: T1, AhR (Mus musculus, UniProt P30561); experiment: AhR-responsive luciferase reporter test of agonist activity; format: cell-based; conditions: cell line H1L1.1c2, FIG. 1
T1 construct: endogenous in cells; host or cells: H1L1.1c2
Description: For this test, an AhR-responsive cell line was stimulated (cell line H1L1.1c2 containing a luciferase of firefly sensitive to stably transfected AhR) with IAld, indole-3-acetaldehyde (IAAld), indole-3-acetic acid (IAA) and indole-3-lactic acid (ILA). In a way well known to the technician in the field, the agonist activity was determined by means of luciferase test, and in FIG. 1 the luciferase activity of the different ligands, representative of such agonist activity, has been indicated, on the ordinate, as a percentage of the response induced by 50 nM of formylindolo[3,2-b]carbazole (FICZ) according to the ligand dose, expressed in logarithmic scale on the abscissa.

[2] = system: genes Cyp1A1, Cyp1B1, IL-22, IL-10 and IDO1; format: cell-based, mice
Description: (§1) For these verifications, cultures were set up of mice stomachs and colons stimulated with 1 or 100 mM of IAld for 24 hours in vitro before determining the transcription of the above indicated genes by means of polymerase reaction. The histograms A-E show the activation (expressed in terms of the number of times the mRNA increases) of the genes Cyp1A1, Cyp1B1, IL-22, IL-10 and IDO1 respectively in the stomach (top diagram) and in the colon (bottom diagram) as a consequence of the stimulation. […] For comparison, also indicated are the values in the absence of stimulation with IAld. […] To assess the therapeutic effect in treating candidiasis, two experimental models were used of infection by C. albicans obtained by administration of the fungus intragastrically (by means of a tube) and intravaginally (by means of tip) respectively. To assess the therapeutic effect in treating colitis, the model used requires the administration of an irritant (dextran sodium sulphate, DDS), through the mouth. The assessment was made on mice C57BL/6 and on mice AhR^−/−, i.e., mice from which the AhR receptor had been artificially removed. The treatment with IAld lasted for 7 days.

[3] = system: Candida albicans; experiment: Infection by C. albicans, fungus given intragastrically; format: in vivo, mice; conditions: 18 mg/kg intragastrically daily, 7 days
Description: as §1

[4] = system: Candida albicans; experiment: Infection by C. albicans, fungus given intravaginally; format: in vivo, mice; conditions: 18 mg/kg intragastrically daily, 7 days
Description: as §1

[5] = system: colitis; experiment: Colitis model induced by dextran sodium sulphate through the mouth; format: in vivo, mice; conditions: 18 mg/kg intragastrically daily, 7 days
Description: as §1

T1 sequence (P30561 10-805 limits assumed): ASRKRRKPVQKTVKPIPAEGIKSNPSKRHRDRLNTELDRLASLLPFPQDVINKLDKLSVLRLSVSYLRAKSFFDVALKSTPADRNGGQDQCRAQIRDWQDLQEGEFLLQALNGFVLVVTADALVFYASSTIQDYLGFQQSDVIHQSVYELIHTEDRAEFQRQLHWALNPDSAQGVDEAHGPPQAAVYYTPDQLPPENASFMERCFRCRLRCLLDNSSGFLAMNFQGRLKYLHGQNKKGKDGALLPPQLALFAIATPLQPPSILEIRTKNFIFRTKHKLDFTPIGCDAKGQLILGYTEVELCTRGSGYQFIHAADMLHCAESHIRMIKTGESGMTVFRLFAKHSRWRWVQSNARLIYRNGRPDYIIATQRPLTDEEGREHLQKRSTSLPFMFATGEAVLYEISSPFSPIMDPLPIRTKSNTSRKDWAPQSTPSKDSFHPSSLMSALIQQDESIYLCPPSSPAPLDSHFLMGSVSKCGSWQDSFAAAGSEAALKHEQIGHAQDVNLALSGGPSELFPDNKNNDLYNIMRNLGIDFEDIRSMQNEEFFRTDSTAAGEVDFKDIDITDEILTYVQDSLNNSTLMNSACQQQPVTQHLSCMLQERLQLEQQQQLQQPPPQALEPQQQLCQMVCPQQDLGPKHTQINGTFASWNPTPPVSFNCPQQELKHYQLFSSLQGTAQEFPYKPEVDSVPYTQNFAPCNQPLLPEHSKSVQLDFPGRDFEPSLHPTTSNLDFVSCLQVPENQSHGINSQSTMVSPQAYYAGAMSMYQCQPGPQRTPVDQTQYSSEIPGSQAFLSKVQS
T1 sequence (P11499 whole entry partner): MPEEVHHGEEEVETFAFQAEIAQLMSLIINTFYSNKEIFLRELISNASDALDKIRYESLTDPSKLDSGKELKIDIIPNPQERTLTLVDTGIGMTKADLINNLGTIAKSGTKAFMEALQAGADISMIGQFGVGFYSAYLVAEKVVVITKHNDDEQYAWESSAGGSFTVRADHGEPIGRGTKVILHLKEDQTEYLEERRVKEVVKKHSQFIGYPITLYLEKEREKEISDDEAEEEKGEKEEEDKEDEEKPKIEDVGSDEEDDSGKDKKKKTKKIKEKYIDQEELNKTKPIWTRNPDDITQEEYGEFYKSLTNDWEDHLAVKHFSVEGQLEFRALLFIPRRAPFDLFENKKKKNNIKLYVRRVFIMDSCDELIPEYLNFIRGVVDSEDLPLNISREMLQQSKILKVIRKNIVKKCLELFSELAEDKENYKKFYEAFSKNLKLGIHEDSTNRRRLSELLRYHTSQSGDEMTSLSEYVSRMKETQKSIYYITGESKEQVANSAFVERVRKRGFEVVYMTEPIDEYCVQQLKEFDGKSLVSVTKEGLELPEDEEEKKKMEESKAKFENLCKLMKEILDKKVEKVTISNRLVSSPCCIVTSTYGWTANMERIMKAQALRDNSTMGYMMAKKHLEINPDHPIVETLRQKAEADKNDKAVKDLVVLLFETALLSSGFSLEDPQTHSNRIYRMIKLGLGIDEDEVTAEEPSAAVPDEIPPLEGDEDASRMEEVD
T1 sequence (O08915 whole entry partner): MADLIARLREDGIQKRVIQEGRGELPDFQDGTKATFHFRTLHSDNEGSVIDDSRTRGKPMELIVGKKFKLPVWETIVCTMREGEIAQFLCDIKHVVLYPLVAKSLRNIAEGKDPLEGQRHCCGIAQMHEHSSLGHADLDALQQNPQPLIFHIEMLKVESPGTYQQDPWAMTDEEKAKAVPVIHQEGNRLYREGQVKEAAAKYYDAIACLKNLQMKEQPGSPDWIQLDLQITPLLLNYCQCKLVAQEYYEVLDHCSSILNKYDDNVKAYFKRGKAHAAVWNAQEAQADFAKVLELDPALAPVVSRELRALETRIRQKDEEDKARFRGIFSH

dose dependence of AhR-agonist activity [1]: closely dependent on the dose
dose dependence of gene activation [2]: strongly dependent on the dose
Compound: O=Cc1c[nH]c2ccccc12 [IAld, IH-indole-3-carbaldehyde]
AhR-agonist activity (luciferase activity as a percentage of the response induced by 50 nM FICZ) ([1]; compared with IAAld, ILA and IAA): substantially comparable to that of IAAld and is superior to that of ILA and IAA
therapeutic effect in mice AhR−/− versus C57BL/6 ([3]; gastric candidiasis, mice AhR−/−): only to be found in mice C57BL/6 and not in mice AhR^−/−
growth of Candida albicans (CFU) at stomach level ([3]; mice C57BL/6, FIG. 3 diagram A): significant reduction in growth
activation of IL-22 and IL-10 in the stomach ([3]; mice C57BL/6, FIG. 3 histogram B): contemporaneous activation of IL-22 and IL-10
growth of Candida albicans (CFU) at vagina level ([4]; mice C57BL/6, FIG. 3 diagram C): significant reduction in growth
activation of IL-22 and IL-10 in the vagina ([4]; mice C57BL/6, FIG. 3 histogram B (so in the source)): contemporaneous activation of IL-22 and IL-10
therapeutic effect in mice AhR−/− versus C57BL/6 ([4]; vaginal candidiasis, mice AhR−/−): only to be found in mice C57BL/6 and not in mice AhR^−/−
therapeutic effect in mice AhR−/− versus C57BL/6 ([5]; colitis, mice AhR−/−): only to be found in mice C57BL/6 and not in mice AhR^−/−
percentage variation in body weight ([5]; mice C57BL/6 with colitis, FIG. 3 graph E): prevention of the reduction in body weight
degree of tissue inflammation (colon histopathology) ([5]; mice C57BL/6 with colitis, FIG. 3 photographs F): improvement in the degree of tissue inflammation
cells producing IL-22 (immunofluorescence) ([5]; mice C57BL/6 with colitis, FIG. 3 photographs G): expansion of cells producing IL-22
